According to ChEMBL document CHEMBL1144744, “Hypoxia-inducible factor-1 and nuclear factor-kappaB inhibitory meroterpene analogues of bakuchiol, a constituent of the seeds of Psoralea corylifolia” (Bioorg Med Chem Lett, 2008):

Columns and labels:
[1] = biological target: Hypoxia inducible factors; HIF-1-alpha, HIF-2-alpha (Homo sapiens, UniProt Q16665+Q99814); test: Inhibition of hypoxia-induced HIF1 activation in human AGS cells by reporter gene assay; assay type: cell-based
HeLa = test: Cytotoxicity against human HeLa cells by MTT assay; assay type: functional, cell-based
AGS = test: Cytotoxicity against human AGS cells by MTT assay; assay type: functional, cell-based
[2] = Inhibition of TNF-alpha-induced NF-kappaB activation in human HeLa cells; assay type: cell-based

| IC50 [1] [µM] | IC50 [2] [µM] | SMILES | IC50 (HeLa) [µM] | IC50 (AGS) [µM] |
| --- | --- | --- | --- | --- |
| 6.1 | 6.9 | C=C[C@@](C)(/C=C/c1ccc(O)cc1)CCC=C(C)C [BAKUCHIOL] | 11 | 15.3 |
| > 50 | > 50 | C=C[C@@](C)(/C=C/c1ccc(O)cc1)CCC(O)C(C)(C)O (some centres not stated) | > 50 | > 50 |
| > 50 | 12.2 | C=C[C@@](C)(/C=C/c1ccc(OC(C)(C)[C@@H](O)CC[C@@](C)(C=C)/C=C/c2ccc(O)cc2)cc1)CCC=C(C)C | > 50 | > 50 |
| > 50 | > 50 | C=C[C@@](C)(/C=C/c1ccc(O)cc1)CCC1OC1(C)C (some centres not stated) | > 50 | > 50 |
| 5.7 | 5.7 | C=C[C@@](C)(/C=C/c1ccc(OC(C)=O)cc1)CCC=C(C)C [ACETYLBAKUCHIOL] | 18.1 | 26.8 |
| 26.3 | 12.2 | C=C[C@@](C)(/C=C/c1ccc(OCC)cc1)CCC=C(C)C | > 50 | > 50 |
| 8.7 | 5.7 | C=C[C@@](C)(/C=C/c1ccc(OC)cc1)CCC=C(C)C | > 50 | 55.8 |

| SMILES | IC50 [1] [µM] | IC50 [2] [µM] | IC50 (HeLa) [µM] | IC50 (AGS) [µM] |
| --- | --- | --- | --- | --- |
| CO[C@H]1/C=C\C=C(/C)C(=O)NC2=CC(=O)C(NCCN(C)C)=C(C[C@@H](C)C[C@H](OC)[C@H](O)[C@@H](C)/C=C(\C)[C@@H]1OC(N)=O)C2=O [ALVESPIMYCIN] | 0.0036 | 0.15 | 2.06 | 16 |
